Data taken from US20100196321A1, “COMPOUNDS” (GLAXOSMITHKLINE LLC, priority 2009, published 2010).

Tests used:
[1] = test system: sub-genomic HCV NS3-NS5B replicon of genotype 1b (ET subline) in Huh-7 cells; assay: Replicon Luciferase Cell Based Assay, genotype 1b; parameters: species or system HCV genotype 1b; conditions: Hepatitis C virus, Huh-7, 48 h, read-out: Genotype 1b (IC50 μM)
Method: (§1) A 10 mM stock solution in DMSO of each test compound was further diluted in DMSO in the first row of a 384-well, V-bottom microplate, to give 100 times the top concentration of the required dilution series. Dilutions of compound were prepared in 1:3 serial dilutions from the first row onwards robotically. A robot was also used to transfer 0.5 μL volumes from each dilution well into wells of white 384-well assay plates (Nunc #164610). Control wells received 0.5 μL of DMSO alone. Plates were made in duplicate for measuring HCV replication and cytotoxicity in the replicon cell lines.
(§2) Suspensions were prepared from cultures of Huh-7 cells stably transfected with sub-genomic HCV NS3—NS5B replicons of either genotype 1b (the ET subline described by Pietschmann, T., Lohmann, V., Kaul, A., Krieger, N., Rinck, G., Rutter, G., Strand, D. & Bartenschlager, R., Journal of Virology, 2002, 76, 4008-4021) or genotype 1a linked to a firefly luciferase reporter gene. Monolayers nearing confluency were stripped from growth flasks with versene-trypsin solution and the cells re-suspended in assay medium comprising DMEM (Invitrogen #11965-092) supplemented with 5% v/v foetal calf serum, 1% v/v non-essential amino acids solution, 100 units/ml penicillin, 100 μg/ml streptomycin and 2 mM GlutaMAX-1. 50 μL of suspension containing 5,000 cells of either genotype 1b or genotype 1a luciferase replicon were added to all wells, except medium controls, of the assay plate with a Multidrop Combi (Thermo Scientific Corporation) and the plate incubated for 48 hours at 37° C. in a 5% CO2 atmosphere. A solution of Steady-Glo cytolytic buffer/luciferase substrate (Promega #E2550) was prepared according to the manufacturer's instructions, and 20 μL were added to each well with a Multidrop Combi. To measure cytotoxicity, a solution of CellTiter-Glo Luminescent Cell Viability Assay reagent (Promega #G7573) was prepared according to the manufacturer's instructions, and 20 ul were added to each well with a Multidrop Combi. The plates were then read for luminescence on an Envision Multilabel Reader (Perkin Elmer)
(§3) Potency: The luminescence values from all compound-free wells containing cells were averaged to obtain a positive control value. The mean luminescence value from the compound-free wells that had received no cells was used to provide the negative (background) control value. After the subtraction of the mean background from all values, the readings from wells at each compound concentration were expressed as a percentage of the positive control signal. The quantifiable and specific reduction of luciferase signal in the presence of a drug is a direct measure of replicon inhibition. The BioAssay application and XC50 module were used to plot the curve of percentage inhibition against compound concentration and derive the 50% inhibitory concentration (IC50) for the compound.

[2] = test system: sub-genomic HCV NS3-NS5B replicon of genotype 1a in Huh-7 cells; assay: Replicon Luciferase Cell Based Assay, genotype 1a; parameters: species or system HCV genotype 1a; conditions: Hepatitis C virus, Huh-7, 48 hours
Method: as §1, §2, §3

SMILES	IC50 [1] [µM]	IC50 [2] [µM]
COc1ccc2c(O[C@@H]3C[C@H]4C(=O)N[C@]5(C(=O)NS(=O)(=O)C6CC6)C[C@H]5/C=C\CCCCC[C@H](NC(=O)N5CC(F)(F)C5)C(=O)N4C3)cc(-c3nc(C4CC4)cs3)nc2c1C [Example 33, (2R,6S,13aS,14aR,16aS,Z)-N-(cyclopropylsulfonyl)-2-(2-(4-cyclopropylthiazol-2-yl)-7-methoxy-8-methylquinolin-4-yloxy)-6-(3,3-difluoroazetidine-1-carboxamido)-5,16-dioxo-1,2,3,5,6,7,8,9,10,11,13a,14,14a,15,16,16a-hexadecahydrocyclopropa[e]pyrrolo[1,2-a][1,4]diazacyclopentadecine-14a-carboxamide]	< 0.01	< 0.01
COc1ccc2c(O[C@@H]3C[C@H]4C(=O)N[C@]5(C(=O)NS(=O)(=O)C6CC6)C[C@H]5/C=C\CCCCC[C@H](NC(=O)N(C)C(C)(C)C)C(=O)N4C3)cc(-c3nc(C4CC4)cs3)nc2c1C [Example 9, (2R,6S,13aS,14aR,16aS)-N-(cyclopropylsulfonyl)-2-{[2-(4-cyclopropyl-1,3-thiazol-2-yl)-8-methyl-7-(methyloxy)-4-quinolinyl]oxy}-6-({[(1,1-dimethylethyl)(methyl)amino]carbonyl}amino)-5,16-dioxo-1,2,3,6,7,8,9,10,11,13a,14,15,16,16a-tetradecahydrocyclopropa[e]pyrrolo[1,2-a][1,4]diazacyclopentadecine-14a(5H)-carboxamide]	< 0.01	< 0.01
CCCN(CC1CC1)C(=O)N[C@H]1CCCCC/C=C\[C@@H]2C[C@@]2(C(=O)NS(=O)(=O)C2CC2)NC(=O)[C@@H]2C[C@@H](Oc3cc(-c4nc(C(C)C)cs4)nc4c(C)c(OC)ccc34)CN2C1=O [Example 19, (2R,6S,13aS,14aR,16aS)-6-({[(cyclopropylmethyl)(propyl)amino]carbonyl}amino)-N-(cyclopropylsulfonyl)-2-{[8-methyl-2-[4-(1-methylethyl)-1,3-thiazol-2-yl]-7-(methyloxy)-4-quinolinyl]oxy}-5,16-dioxo-1,2,3,6,7,8,9,10,11,13a,14,15,16,16a-tetradecahydrocyclopropa[e]pyrrolo[1,2-a][1,4]diazacyclopentadecine-14a(5H)-carboxamide]	< 0.01	< 0.01
COc1ccc2c(O[C@@H]3C[C@H]4C(=O)N[C@]5(C(=O)NS(=O)(=O)C6CC6)C[C@H]5/C=C\CCCCC[C@H](NC(=O)N(C)C)C(=O)N4C3)cc(-c3nc(C4CC4)cs3)nc2c1C [Example 6, (2R,6S,13aS,14aR,16aS)-N-(cyclopropylsulfonyl)-2-{[2-(4-cyclopropyl-1,3-thiazol-2-yl)-8-methyl-7-(methyloxy)-4-quinolinyl]oxy}-6-{[(dimethylamino)carbonyl]amino}-5,16-dioxo-1,2,3,6,7,8,9,10,11,13a,14,15,16,16a-tetradecahydrocyclopropa[e]pyrrolo[1,2-a][1,4]diazacyclopentadecine-14a(5H)-carboxamide]	< 0.01	< 0.01
CCN(CC)C(=O)N[C@H]1CCCCC/C=C\[C@@H]2C[C@@]2(C(=O)NS(=O)(=O)C2CC2)NC(=O)[C@@H]2C[C@@H](Oc3cc(-c4nc(C(C)C)cs4)nc4c(C)c(OC)ccc34)CN2C1=O [Example 2, (2R,6S,13aS,14aR,16aS)-N-(cyclopropylsulfonyl)-6-{[(diethylamino)carbonyl]amino}-2-{[8-methyl-2-[4-(1-methylethyl)-1,3-thiazol-2-yl]-7-(methyloxy)-4-quinolinyl]oxy}-5,16-dioxo-1,2,3,6,7,8,9,10,11,13a,14,15,16,16a-tetradecahydrocyclopropa[e]pyrrolo[1,2-a][1,4]diazacyclopentadecine-14a(5H)-carboxamide]	< 0.01	< 0.01
COc1ccc2c(O[C@@H]3C[C@H]4C(=O)N[C@]5(C(=O)NS(=O)(=O)C6CC6)C[C@H]5/C=C\CCCCC[C@H](NC(=O)N5CCC5)C(=O)N4C3)cc(-c3nc(C4CC4)cs3)nc2c1C [Example 32, (2R,65,13aS,14aR,16aS,Z)-6-(azetidine-1-carboxamido)-N-(cyclopropylsulfonyl)-2-(2-(4-cyclopropylthiazol-2-yl)-7-methoxy-8-methylquinolin-4-yloxy)-5,16-dioxo-1,2,3,5,6,7,8,9,10,11,13a,14,14a,15,16,16a-hexadecahydrocyclopropa[e]pyrrolo[1,2-a][1,4]diazacyclopentadecine-14a-carboxamide]	< 0.01	< 0.01
COc1ccc2c(O[C@@H]3C[C@H]4C(=O)N[C@]5(C(=O)NS(=O)(=O)C6CC6)C[C@H]5/C=C\CCCCC[C@H](NC(=O)N5CCC(C)(C)C5)C(=O)N4C3)cc(-c3nc(C4CC4)cs3)nc2c1C [Example 34, (2R,6S,13a-5,1-aR,16aS,Z)-N-(cyclopropylsulfonyl)-2-(2-(4-cyclopropylthiazol-2-yl)-7-methoxy-8-methylquinolin-4-yloxy)-6-(3,3-dimethylpyrrolidine-1-carboxamido)-5,16-dioxo-1,2,3,5,6,7,8,9,10,11,13a,14,14a,15,16,16a-hexadecahydrocyclopropa[e]pyrrolo[1,2-a][1,4]diazacyclopentadecine-14a-carboxamide]	< 0.01	< 0.01
COc1ccc2c(O[C@@H]3C[C@H]4C(=O)N[C@]5(C(=O)NS(=O)(=O)C6CC6)C[C@H]5/C=C\CCCCC[C@H](NC(=O)N5CCS(=O)(=O)CC5)C(=O)N4C3)cc(-c3nc(C(C)C)cs3)nc2c1C [Example 12, (2R,6S,13aS,14aR,16aS)-N-(cyclopropylsulfonyl)-6-{[(1,1-dioxido-4-thiomorpholinyl)carbonyl]amino}-2-{[8-methyl-2-[4-(1-methylethyl)-1,3-thiazol-2-yl]-7-(methyloxy)-4-quinolinyl]oxy}-5,16-dioxo-1,2,3,6,7,8,9,10,11,13a,14,15,16,16a-tetradecahydrocyclopropa[e]pyrrolo[1,2-a][1,4]diazacyclopentadecine-14a(5H)-carboxamide]	< 0.01	< 0.01
COc1ccc2c(O[C@@H]3C[C@H]4C(=O)N[C@]5(C(=O)NS(=O)(=O)C6CC6)C[C@H]5/C=C\CCCCC[C@H](NC(=O)N5CCCCC5)C(=O)N4C3)cc(-c3nc(C4CC4)cs3)nc2c1C [Example 31, (2R,6S,13aS,14aR,16aS,Z)-N-(cyclopropylsulfonyl)-2-(2-(4-cyclopropylthiazol-2-yl)-7-methoxy-8-methylquinolin-4-yloxy)-5,16-dioxo-6-(piperidine-1-carboxamido)-1,2,3,5,6,7,8,9,10,11,13a,14,14a,15,16,16a-hexadecahydrocyclopropa[e]pyrrolo[1,2-a][1,4]diazacyclopentadecine-14a-carboxamide]	< 0.01	< 0.01
COc1ccc2c(O[C@@H]3C[C@H]4C(=O)N[C@]5(C(=O)NS(=O)(=O)C6CC6)C[C@H]5/C=C\CCCCC[C@H](NC(=O)N(C(C)C)C(C)C)C(=O)N4C3)cc(-c3nc(C4CC4)cs3)nc2c1C [Example 8, (2R,6S,13aS,14aR,16aS)-6-({[bis(1-methylethyl)amino]carbonyl}amino)-N-(cyclopropylsulfonyl)-2-{[2-(4-cyclopropyl-1,3-thiazol-2-yl)-8-methyl-7-(methyloxy)-4-quinolinyl]oxy}-5,16-dioxo-1,2,3,6,7,8,9,10,11,13a,14,15,16,16a-tetradecahydrocyclopropa[e]pyrrolo[1,2-a][1,4]diazacyclopentadecine-14a(5H)-carboxamide]	< 0.01	< 0.01
CCN(CC)C(=O)N[C@H]1CCCCC/C=C\[C@@H]2C[C@@]2(C(=O)NS(=O)(=O)C2CC2)NC(=O)[C@@H]2C[C@@H](Oc3cc(-c4nc(C(F)(F)F)cs4)nc4c(Cl)c(OC)ccc34)CN2C1=O [Example 29, Cycloprobanesulfonic acid [18-[8-chloro-7-methoxy-2-(4-trifluoromethyl-thiazol-2-yl)-quinolin-4-yloxy]-14-(3,3-diethyl-ureido)-2,15-dioxo-3,16-diaza-tricyclo[14.3.0.04,6]nonadec-7-ene-4-carbonyl]-amide]	< 0.01	< 0.01
CCN(C)C(=O)N[C@H]1CCCCC/C=C\[C@@H]2C[C@@]2(C(=O)NS(=O)(=O)C2CC2)NC(=O)[C@@H]2C[C@@H](Oc3cc(-c4nc(C(C)C)cs4)nc4c(C)c(OC)ccc34)CN2C1=O [Example 17]	< 0.01	< 0.01
